The values below come from paper PMC9290507, “Rh^II‐Catalyzed De‐symmetrization of Ethane‐1,2‐dithiol and Propane‐1,3‐dithiol Yields Metallo‐β‐lactamase Inhibitors” (Chemmedchem, 2021).

One may read the IC50 as the concentration that inhibits the measured activity by half. High values mean weaker potency, low ones greater potency.

One experiment has as its target T1, NDM‐1 (Klebsiella pneumoniae, UniProt C7C422).
T1 construct: made in house
Put plainly: Fluorescence-based enzyme activity assay (Fluorocillin), NDM-1. The class given is biochemical. Here is the method:
(§1) In order to investigate the structure‐activity relationships of the dithiol library, we measured the inhibitory activity of 3 a–x in a fluorescence‐based enzyme activity assay (Table 1). Two relevant β‐lactamase isoforms, NDM‐1 and VIM‐1 were selected for in vitro assays. The fluorogenic substrate fluorocillin[15] was prepared according to literature and its conversion was monitored as described previously.[6] In general, a linear relationship between the potency of 3 a–x towards both enzymes could be observed, however, inhibitory potency towards VIM‐1 was almost tenfold higher (Figure 3). A very clear preference for the propane‐1,3‐dithiol over ethane‐1,2‐dithiol compounds could be observed from matched molecular pairs.
(§2) Activity assays for MBLs were performed at room temperature in black polystyrol 96well plates (Corning, Corning, NY, USA) using dicefalotinodifluorofluorescein (Fluorocillin) as a substrate. Proteins were diluted in assay buffer (HEPES 50 mM, pH 7.5 containing 0.01 %Triton X‐100), with final protein concentrations of NDM‐1: 3 nM, or VIM‐1: 4 nM. Samples were supplemented with an equimolar amount of ZnCl2. An amount of 1 μL of compounds 3 a–3 x at different concentrations was incubated with 89 μL of enzyme in assay buffer. After an incubation period of 30 min at room temperature, 10 μL of Fluorocillin substrate was added to yield the final assay volume of 100 μL. Final concentration of DMSO was 1 %. The fluorescence emitted by the fluorescent product difluorofluorescein was monitored every 45 s for 30 cycles using a Tecan fluorescent plate reader (Infinite 200; excitation at 495 nm and emission at 525 nm) and was compared with a standard curve. The rate of the enzymatic reaction was obtained by dividing the quantity of the fluorescent product (RFU) by time (min). Negative controls were measured in the absence of enzyme, whereas the positive controls were measured in the presence of enzyme and in the absence of inhibitors. The inhibitory effect of each substance was measured in triplicate in three independent experiments. IC50 values were calculated using data obtained from measurements with at least eight different inhibitor concentrations, applying a sigmoidal dose–response (variable slope with four parameters) equation using GraphPad Prism 5 (GraphPad Software, La Jolla, CA, USA) software. In order to investigate the inhibitory activity of 3 a, 3 o, or 3 s in the presence of a high Zn^2+ concentration, assay buffer containing an additional 100 μM ZnCl2 was used. The assay was performed as described above with NDM‐1 or VIM‐1 and 10 μM of 3 a, 3 o, or 3 s.

A further experiment deals with T2, VIM‐1 (Pseudomonas aeruginosa, UniProt A0A0F7KYQ8).
T2 construct: made in house
Put plainly: Fluorescence-based enzyme activity assay (Fluorocillin), VIM-1. The class given is biochemical. As for the experimental part:
as §1, §2

The structures appear in SMILES notation.

T1 sequence (C7C422 29-270, looked up, species assumed): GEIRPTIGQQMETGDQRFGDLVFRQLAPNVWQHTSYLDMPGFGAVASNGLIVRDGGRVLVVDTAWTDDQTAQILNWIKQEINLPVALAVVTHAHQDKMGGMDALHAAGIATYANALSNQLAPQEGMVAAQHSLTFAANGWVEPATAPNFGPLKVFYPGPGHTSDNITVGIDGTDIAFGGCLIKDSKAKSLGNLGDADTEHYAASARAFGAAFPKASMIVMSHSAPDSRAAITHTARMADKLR

On to `COc1ccc(C(=O)CSCCCS)cc1` [3 g, 2‐((3‐Mercaptopropyl)thio)‐1‐(4‐methoxyphenyl)ethanone], for which the IC50 on NDM‐1 stood at 430 ± 20 nM; against VIM‐1, 140 nM.

As to `N#Cc1ccc(N2CCC(SCCS)C2=O)cc1` (centres unmarked) [3 t, 4‐(3‐((2‐Mercaptoethyl)thio)‐2‐oxopyrrolidin‐1‐yl)benzonitrile], the 50% inhibitory concentration (IC50) was determined as 1190 ± 120 nM against NDM‐1 and 100 ± 20 nM against VIM‐1.

As to `Cc1ccc(C(=O)CSCCS)cc1` [3 b, 2‐((2‐Mercaptoethyl)thio)‐1‐(p–tolyl)ethanone], the IC50 against NDM‐1 worked out at 3910 ± 420 nM; against VIM‐1 it was 220 ± 30 nM.

As to `CCOC(=O)C(SCCS)c1ccc([N+](=O)[O-])cc1` (centres unmarked) [3 j, Ethyl 2‐((2‐mercaptoethyl)thio)‐2‐(4‐nitrophenyl)acetate], the IC50 against NDM‐1 came out at 1550 ± 420 nM; against VIM‐1, 900 ± 60 nM.

For `O=C1C(SCCS)CCN1c1nccs1` (centres unmarked) [3 r, 3‐((2‐Mercaptoethyl)thio)‐1‐(thiazol‐2‐yl)pyrrolidin‐2‐one], the IC50 at NDM‐1 was determined as 1540 ± 30 nM; against VIM‐1 it was 40 ± 20 nM.

`COc1ccc(C(=O)CSCCS)cc1` [3 f, 2‐((2‐Mercaptoethyl)thio)‐1‐(4‐methoxyphenyl)ethanone]: the IC50 against NDM‐1 is 1340 ± 320 nM; at VIM‐1, 180 ± 10 nM.

For `COC(=O)C(SCCS)c1ccc(Cl)cc1` (centres unmarked) [3 i, Methyl 2‐(4‐chlorophenyl)‐2‐((2‐mercaptoethyl)thio)acetate], the figures for the IC50 on NDM‐1 and on VIM‐1 were 880 ± 160 nM and 190 ± 10 nM, respectively.

On to `O=C1C(SCCS)CCN1c1cccc(C(F)(F)F)c1` (centres unmarked) [3 p, 3‐((2‐Mercaptoethyl)thio)‐1‐(3‐(trifluoromethyl)phenyl)pyrrolidin‐2‐one], for which the values for the IC50 on NDM‐1 and on VIM‐1 were 2080 ± 110 nM and 220 ± 10 nM, respectively.

As to `O=C1OCCC1SCCS` (centres unmarked) [3 h, 3‐((2‐Mercaptoethyl)thio)dihydrofuran‐2(3H)‐one], the IC50 at NDM‐1 was determined as 3630 ± 470 nM; at VIM‐1, 460 ± 30 nM.

Turning to `O=C1C(SCCCS)CCN1c1cccc(C(F)(F)F)c1` (centres unmarked) [3 q, 3‐((3‐Mercaptopropyl)thio)‐1‐(3‐(trifluoromethyl)phenyl)pyrrolidin‐2‐one], the results for the IC50 against NDM‐1 and against VIM‐1 were 480 ± 10 nM and 70 ± 10 nM, respectively.

As to `O=C(CSCCCS)N1CCN(Cc2ccc(Cl)cc2)CC1` [3 u, 1‐(4‐(4‐Chlorobenzyl)piperazin‐1‐yl)‐2‐((3‐mercaptopropyl)thio)ethan‐1‐one], the IC50 against NDM‐1 amounted to 3310 ± 120 nM; at VIM‐1 it was 300 ± 20 nM.

`CN1CCC(SCCCS)C1=O` (centres unmarked) [3 m, 3‐((3‐Mercaptopropyl)thio)‐1‐methylpyrrolidin‐2‐one]: the IC50 at NDM‐1 was determined as 1580 ± 220 nM; on VIM‐1 it was 180 nM.

For `COC(=O)CC(SCCCS)C(=O)OC` (centres unmarked) [3 l, Dimethyl 2‐((3‐mercaptopropyl)thio)succinate], the IC50 against NDM‐1 came out at 440 ± 110 nM; against VIM‐1, 40 ± 10 nM.

For the molecule `CCOC(=O)C(SCCCS)c1ccc([N+](=O)[O-])cc1` (centres unmarked) [3 k, Ethyl 2‐((3‐mercaptopropyl)thio)‐2‐(4‐nitrophenyl)acetate], the IC50 against NDM‐1 was 7790 ± 1300 nM; on VIM‐1 it was 730 ± 50 nM.

As for `CN(C(=O)CSCCS)[C@H]1CCCC[C@@H]1O` (relative stereo) [3 v, N‐((1S*,2S*)‐2‐Hydroxycyclohexyl)‐2‐((2‐mercaptoethyl)thio)‐N‐methylacetamide], the figures for the IC50 against NDM‐1 and at VIM‐1 were 5500 ± 300 nM and 330 ± 20 nM, respectively.

On to `O=C1C(SCCS)CCN1c1ccccc1` (centres unmarked) [3 n, 3‐((2‐Mercaptoethyl)thio)‐1‐phenylpyrrolidin‐2‐one], for which the IC50 at NDM‐1 was determined as 1410 ± 70 nM; at VIM‐1 it was 80 nM.

Regarding `Cc1ccc(S(=O)(=O)N2CCN(C(=O)CSCCS)CC2)cc1` [3 x, 2‐((2‐Mercaptoethyl)thio)‐1‐(4‐tosylpiperazin‐1‐yl)ethanone], the IC50 against NDM‐1 turned out to be 2400 ± 130 nM; against VIM‐1, 400 ± 30 nM.

In the case of `O=C(CSCCS)c1ccc(Cl)cc1` [3 d, 1‐(4‐Chlorophenyl)‐2‐((2‐mercaptoethyl)thio)ethanone], the IC50 was 5630 ± 1190 nM against NDM‐1 and 230 ± 10 nM on VIM‐1.

For `O=C(CSCCCS)c1ccc(F)cc1` [3 e, 1‐(4‐Fluorophenyl)‐2‐((3‐mercaptopropyl)thio)ethanone], the IC50 against NDM‐1 was determined as 600 ± 30 nM; on VIM‐1, 230 ± 50 nM.
